Key:
[1] = molecular target: Vascular endothelial growth factor receptor 2 (Homo sapiens, UniProt P35968)
Description: Inhibition of Vascular endothelial growth factor receptor 2 at 5 uM ATP

[2] = molecular target: T1, Tyrosine-protein kinase Lck (Homo sapiens, UniProt P06239)
Description: Inhibition of p56 Lck tyrosine kinase at 5 uM ATP

Jurkat [3] = test: Inhibition of anti-CD3 stimulated IL-2 production by Jurkat cells; assay type: functional, cell-based; details: Homo sapiens
Jurkat [4] = test: Inhibition of MLR stimulated IL-2 production in Jurkat cells; assay type: functional, cell-based; details: Homo sapiens
[5] = molecular target: Cyclin-dependent kinase 1/cyclin B (Homo sapiens, UniProt P06493); test: Inhibition of CDC2/CyB; assay type: protein-complex assay
[6] = molecular target: Proto-oncogene tyrosine-protein kinase Src (Homo sapiens, UniProt P12931)
Chain of Proto-oncogene tyrosine-protein kinase Src (P12931 2-536 limits assumed): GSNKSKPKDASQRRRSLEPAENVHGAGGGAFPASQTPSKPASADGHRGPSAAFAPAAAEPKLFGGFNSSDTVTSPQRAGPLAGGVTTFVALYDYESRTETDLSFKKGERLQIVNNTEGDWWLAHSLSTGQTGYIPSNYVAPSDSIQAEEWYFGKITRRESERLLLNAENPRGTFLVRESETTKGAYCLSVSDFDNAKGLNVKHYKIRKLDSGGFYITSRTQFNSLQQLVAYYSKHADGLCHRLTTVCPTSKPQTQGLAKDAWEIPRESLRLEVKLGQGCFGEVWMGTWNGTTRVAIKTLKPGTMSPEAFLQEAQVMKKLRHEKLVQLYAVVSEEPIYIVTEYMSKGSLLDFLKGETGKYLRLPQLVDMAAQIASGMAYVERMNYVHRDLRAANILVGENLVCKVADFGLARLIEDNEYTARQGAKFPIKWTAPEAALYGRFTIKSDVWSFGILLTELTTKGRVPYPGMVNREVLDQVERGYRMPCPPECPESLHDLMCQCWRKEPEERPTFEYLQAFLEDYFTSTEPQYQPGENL
Description: Inhibition of src at 5 mM ATP

Jurkat [7] = test: Inhibition of PMA stimulated IL-2 production in Jurkat cells; assay type: functional, cell-based; details: Homo sapiens
Protein kinase C (PKC) = test: Inhibition of PKC; assay type: protein assay
Angiopoietin-1 receptor = Angiopoietin-1 receptor (Homo sapiens, UniProt Q02763)
Chain of Angiopoietin-1 receptor (Q02763 whole entry): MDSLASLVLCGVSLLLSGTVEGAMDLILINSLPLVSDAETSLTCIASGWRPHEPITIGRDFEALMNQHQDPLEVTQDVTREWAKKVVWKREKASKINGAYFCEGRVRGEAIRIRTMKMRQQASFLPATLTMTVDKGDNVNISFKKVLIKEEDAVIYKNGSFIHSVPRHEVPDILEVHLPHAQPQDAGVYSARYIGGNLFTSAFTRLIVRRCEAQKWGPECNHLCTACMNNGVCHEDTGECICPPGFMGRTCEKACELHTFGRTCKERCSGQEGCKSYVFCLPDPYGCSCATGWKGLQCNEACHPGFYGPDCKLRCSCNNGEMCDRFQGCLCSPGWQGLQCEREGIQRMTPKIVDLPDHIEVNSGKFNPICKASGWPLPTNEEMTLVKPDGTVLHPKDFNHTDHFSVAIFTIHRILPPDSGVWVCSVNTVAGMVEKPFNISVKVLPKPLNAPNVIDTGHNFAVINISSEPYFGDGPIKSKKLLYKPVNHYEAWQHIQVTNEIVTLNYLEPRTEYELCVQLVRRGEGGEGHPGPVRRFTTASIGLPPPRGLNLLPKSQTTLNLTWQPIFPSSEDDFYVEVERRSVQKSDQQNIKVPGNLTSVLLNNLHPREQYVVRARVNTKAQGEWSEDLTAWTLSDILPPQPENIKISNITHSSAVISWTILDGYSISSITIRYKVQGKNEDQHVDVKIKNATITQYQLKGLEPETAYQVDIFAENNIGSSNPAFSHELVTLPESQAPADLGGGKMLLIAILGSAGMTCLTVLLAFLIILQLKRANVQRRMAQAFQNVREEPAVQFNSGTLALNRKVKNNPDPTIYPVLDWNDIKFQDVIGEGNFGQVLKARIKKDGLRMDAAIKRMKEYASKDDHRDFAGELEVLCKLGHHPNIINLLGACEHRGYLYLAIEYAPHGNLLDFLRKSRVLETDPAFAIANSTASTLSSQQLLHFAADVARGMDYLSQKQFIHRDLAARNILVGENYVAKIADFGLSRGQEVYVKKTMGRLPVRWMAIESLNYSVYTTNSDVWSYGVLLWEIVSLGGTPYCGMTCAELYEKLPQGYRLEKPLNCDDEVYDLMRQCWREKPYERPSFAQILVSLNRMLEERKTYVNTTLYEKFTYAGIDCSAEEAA
Description: Inhibition of tie-2 at 5 uM ATP

[8] = molecular target: T2, Tyrosine-protein kinase ZAP-70 (Homo sapiens, UniProt P43403); test: Inhibition of Zap 70
T2 sequence (P43403 whole entry): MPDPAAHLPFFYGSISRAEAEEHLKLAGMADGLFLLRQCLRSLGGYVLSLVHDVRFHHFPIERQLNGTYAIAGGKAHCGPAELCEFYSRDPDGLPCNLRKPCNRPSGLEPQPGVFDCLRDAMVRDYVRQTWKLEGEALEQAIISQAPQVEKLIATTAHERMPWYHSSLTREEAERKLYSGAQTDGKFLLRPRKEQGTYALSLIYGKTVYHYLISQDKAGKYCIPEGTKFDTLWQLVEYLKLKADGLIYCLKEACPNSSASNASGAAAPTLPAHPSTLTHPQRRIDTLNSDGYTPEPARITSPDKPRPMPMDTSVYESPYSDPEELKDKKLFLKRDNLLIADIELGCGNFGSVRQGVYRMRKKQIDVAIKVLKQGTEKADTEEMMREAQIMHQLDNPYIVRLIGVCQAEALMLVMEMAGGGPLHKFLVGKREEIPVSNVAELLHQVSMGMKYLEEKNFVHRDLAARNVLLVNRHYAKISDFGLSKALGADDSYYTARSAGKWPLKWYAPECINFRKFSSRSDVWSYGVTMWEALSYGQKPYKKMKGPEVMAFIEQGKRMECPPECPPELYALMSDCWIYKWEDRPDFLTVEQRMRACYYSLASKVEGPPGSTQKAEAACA

[9] = molecular target: T1, Tyrosine-protein kinase Lck; remark: listed apart in the source
Description: Inhibition of p56 Lck tyrosine kinase at 1 mM ATP

[10] = molecular target: T1, Tyrosine-protein kinase Lck; remark: listed apart in the source
Description: Inhibition of p56 Lck tyrosine kinase catalytic domain at 1 mM ATP

[11] = molecular target: T1, Tyrosine-protein kinase Lck; remark: listed apart in the source
Description: Inhibition of p56 Lck tyrosine kinase catalytic domain at 5 uM ATP

Chain of Vascular endothelial growth factor receptor 2 (P35968 whole entry): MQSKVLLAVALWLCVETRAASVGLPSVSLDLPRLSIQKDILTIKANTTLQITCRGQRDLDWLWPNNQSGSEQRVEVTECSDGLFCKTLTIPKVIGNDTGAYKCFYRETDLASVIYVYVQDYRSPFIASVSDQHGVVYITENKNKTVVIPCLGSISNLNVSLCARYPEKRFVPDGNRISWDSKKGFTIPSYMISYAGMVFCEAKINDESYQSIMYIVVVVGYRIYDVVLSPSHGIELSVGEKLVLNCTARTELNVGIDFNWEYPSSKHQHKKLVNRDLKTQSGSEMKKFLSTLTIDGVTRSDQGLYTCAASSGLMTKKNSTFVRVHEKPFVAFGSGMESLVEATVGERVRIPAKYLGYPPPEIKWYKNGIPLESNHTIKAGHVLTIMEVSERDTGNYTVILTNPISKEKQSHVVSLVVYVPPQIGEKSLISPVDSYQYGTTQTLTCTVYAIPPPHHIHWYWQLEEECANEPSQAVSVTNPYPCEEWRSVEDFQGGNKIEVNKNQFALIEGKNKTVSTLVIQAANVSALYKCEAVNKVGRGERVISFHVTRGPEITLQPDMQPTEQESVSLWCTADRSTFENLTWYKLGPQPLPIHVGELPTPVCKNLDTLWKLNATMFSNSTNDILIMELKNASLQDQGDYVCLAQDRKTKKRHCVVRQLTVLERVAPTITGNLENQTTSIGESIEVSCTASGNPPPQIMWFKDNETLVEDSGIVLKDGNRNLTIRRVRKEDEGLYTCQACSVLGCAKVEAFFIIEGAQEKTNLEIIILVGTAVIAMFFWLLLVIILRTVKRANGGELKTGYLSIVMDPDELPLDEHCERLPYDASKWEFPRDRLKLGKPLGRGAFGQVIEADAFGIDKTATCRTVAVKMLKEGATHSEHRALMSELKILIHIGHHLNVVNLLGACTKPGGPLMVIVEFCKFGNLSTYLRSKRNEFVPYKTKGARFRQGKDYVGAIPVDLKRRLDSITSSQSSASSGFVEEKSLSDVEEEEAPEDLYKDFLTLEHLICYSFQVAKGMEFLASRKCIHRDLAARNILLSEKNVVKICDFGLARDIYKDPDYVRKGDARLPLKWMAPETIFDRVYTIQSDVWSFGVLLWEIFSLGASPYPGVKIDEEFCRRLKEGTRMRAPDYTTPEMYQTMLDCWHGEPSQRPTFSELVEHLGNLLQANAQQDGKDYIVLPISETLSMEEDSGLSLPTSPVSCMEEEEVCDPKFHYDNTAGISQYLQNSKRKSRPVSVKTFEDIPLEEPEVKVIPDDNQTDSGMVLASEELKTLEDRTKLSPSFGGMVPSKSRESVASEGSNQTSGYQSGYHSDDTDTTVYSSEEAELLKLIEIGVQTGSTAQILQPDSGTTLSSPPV
T1 sequence (P06239 whole entry): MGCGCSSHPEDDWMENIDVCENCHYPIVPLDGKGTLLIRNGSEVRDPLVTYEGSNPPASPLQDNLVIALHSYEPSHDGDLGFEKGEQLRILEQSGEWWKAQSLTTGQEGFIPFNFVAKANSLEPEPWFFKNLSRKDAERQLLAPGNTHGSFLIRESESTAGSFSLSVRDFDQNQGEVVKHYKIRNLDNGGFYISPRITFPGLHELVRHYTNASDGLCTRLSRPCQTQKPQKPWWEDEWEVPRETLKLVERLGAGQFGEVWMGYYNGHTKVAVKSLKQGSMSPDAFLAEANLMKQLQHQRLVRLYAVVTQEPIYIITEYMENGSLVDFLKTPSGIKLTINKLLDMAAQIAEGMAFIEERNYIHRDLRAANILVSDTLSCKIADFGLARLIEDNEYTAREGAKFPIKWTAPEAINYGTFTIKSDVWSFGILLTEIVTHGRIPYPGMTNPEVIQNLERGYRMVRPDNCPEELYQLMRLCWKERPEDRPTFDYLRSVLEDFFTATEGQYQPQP

Compound `Nc1ncnc2c1c(-c1ccccc1Oc1ccccc1)cn2C1CCCC1` has an IC50 [1] of over 50000 nM and an IC50 [2] of 390 nM.

In the case of `Cc1ccc(-c2nn(C(C)(C)C)c3ncnc(N)c23)cc1`, the IC50 (Jurkat [3]) is reported as 1200 nM and the IC50 (Jurkat [4]) is reported as 400 nM.

Compound `Nc1ncnc2c1c(-c1ccc(Oc3ccccc3)cc1)cn2C1CCC(O)C1` (stereo unspecified) has an IC50 [5] of over 50 µM, an IC50 [6] of 88 nM and an IC50 (Jurkat [7]) of 3000 nM. It also gave an IC50 (Protein kinase C (PKC)) of over 33 µM, an IC50 (Angiopoietin-1 receptor) of 58.3 nM and an IC50 [8] of over 50 µM. The IC50 [1] was 85 nM and the IC50 (Jurkat [4]) was 28 nM.

`Nc1ncnc2c1c(-c1ccc(Oc3ccccc3)cc1)cn2C1CCCC1` showed an IC50 [9] of 16 nM, an IC50 [5] of over 50 µM and an IC50 [6] of 70 nM. The IC50 (Jurkat [7]) was 1500 nM, the IC50 (Protein kinase C (PKC)) was over 33 µM and the IC50 [10] was 1070 nM. For the same compound, the IC50 (Jurkat [3]) was 40 nM, the IC50 [8] was over 50 µM and the IC50 [1] was 1570 nM. It also gave an IC50 [11] of 2 nM and an IC50 [2] of under 1 nM.

`Nc1ncnc2c1c(-c1cccc(Oc3ccccc3)c1)cn2C1CCCC1` showed an IC50 [6] of over 1000 nM.

`CC(C)(C)n1cc(-c2ccc(Cl)cc2)c2c(N)ncnc21` gave an IC50 [2] of 220 nM.

In the case of `c1ccc(Oc2ccc(Nc3ncnc4ccccc34)cc2)cc1`, the IC50 [2] is reported as under 8 nM.

From ChEMBL document CHEMBL1132739, “Pyrrolo[2,3-d]pyrimidines containing an extended 5-substituent as potent and selective inhibitors of lck I” (Bioorg Med Chem Lett, 2000)
